Test results published in patent US9346815B2, “5-chloro-2-difluoromethoxyphenyl pyrazolopyrimidine compounds, compositions and methods of use thereof” (Genentech, Inc., priority 2014, dated 2016).

Legend:
[1] = biological target: isolated recombinant JAK1 kinase domain (Homo sapiens (Human), UniProt P23458); test: JAK1 enzyme assay (Caliper LabChip, peptide phosphorylation); format: biochemical; conditions: isolated recombinant JAK1 kinase domain, 25 μM ATP
[2] = biological target: isolated recombinant JAK2 kinase domain (Homo sapiens (Human), UniProt O60674); test: JAK2 enzyme assay (Caliper LabChip, peptide phosphorylation); format: biochemical; conditions: 25 μM ATP
Chain of isolated recombinant JAK2 kinase domain (O60674 849-1124): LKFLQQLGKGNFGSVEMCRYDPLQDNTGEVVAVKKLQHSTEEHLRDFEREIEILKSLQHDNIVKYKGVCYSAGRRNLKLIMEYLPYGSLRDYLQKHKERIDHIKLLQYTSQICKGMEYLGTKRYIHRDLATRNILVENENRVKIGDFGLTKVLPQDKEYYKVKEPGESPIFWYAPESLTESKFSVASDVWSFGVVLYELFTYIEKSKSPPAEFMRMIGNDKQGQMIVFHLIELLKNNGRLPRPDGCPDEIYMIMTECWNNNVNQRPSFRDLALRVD

Chain of isolated recombinant JAK1 kinase domain (P23458 875-1153): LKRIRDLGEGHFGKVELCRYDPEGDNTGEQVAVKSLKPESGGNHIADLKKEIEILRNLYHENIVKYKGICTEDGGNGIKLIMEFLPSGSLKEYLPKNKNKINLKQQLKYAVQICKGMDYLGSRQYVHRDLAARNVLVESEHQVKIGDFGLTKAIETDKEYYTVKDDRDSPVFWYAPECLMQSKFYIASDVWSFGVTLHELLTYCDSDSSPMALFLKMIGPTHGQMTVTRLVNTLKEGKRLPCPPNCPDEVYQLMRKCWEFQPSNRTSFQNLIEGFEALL

| SMILES | Ki [1] [nM] | Ki [2] [nM] |
| --- | --- | --- |
| Nc1nn2cccnc2c1C(=O)Nc1cn(CC(=O)N2CC3CNCC3C2)nc1-c1cc(Cl)ccc1OC(F)F (centres unmarked) [Example 10, N-[1-[2-(2,3,3a,4,6,6a-hexahydro-1H-pyrrolo[3,4-c]pyrrol-5-yl)-2-oxo-ethyl]-3-[5-chloro-2-(difluoromethoxy)phenyl]pyrazol-4-yl]-2-amino-pyrazolo[1,5-a]pyrimidine-3-carboxamide] | 0.65 | 0.32 |
| CN1CCC2CN(C(=O)Cn3cc(NC(=O)c4cnn5cccnc45)c(-c4cc(Cl)ccc4OC(F)F)n3)CC2C1 (centres unmarked) [Example 30, N-[3-[5-chloro-2-(difluoromethoxy)phenyl]-1-[2-(5-methyl-3,3a,4,6,7,7a-hexahydro-1H-pyrrolo[3,4-c]pyridin-2-yl)-2-oxo-ethyl]pyrazol-4-yl]pyrazolo[1,5-a]pyrimidine-3-carboxamide] | 0.7 | 1.69 |
| CS(=O)(=O)N1CCC(CN2C[C@@H]3CN(C(=O)Cn4cc(NC(=O)c5cnn6cccnc56)c(-c5cc(Cl)ccc5OC(F)F)n4)C[C@@H]3C2)CC1 [Example 34, N-[1-[2-[(3aR,6aS)-2-[(1-methylsulfonyl-4-piperidyl)methyl]-1,3,3a,4,6,6a-hexahydropyrrolo[3,4-c]pyrrol-5-yl]-2-oxo-ethyl]-3-[5-chloro-2-(difluoromethoxy)phenyl]pyrazol-4-yl]pyrazolo[1,5-a]pyrimidine-3-carboxamide] | 0.47 | 0.46 |
| CN(C)C1CN(C(=O)Cn2cc(NC(=O)c3cnn4cccnc34)c(-c3cc(Cl)ccc3OC(F)F)n2)C1 [Example 64, N-[3-[5-chloro-2-(difluoromethoxy)phenyl]-1-[2-[3-(dimethylamino)azetidin-1-yl]-2-oxo-ethyl]pyrazol-4-yl]pyrazolo[1,5-a]pyrimidine-3-carboxamide] | 0.66 | 0.84 |
| CN(C)C[C@H]1CCCN(C(=O)Cn2cc(NC(=O)c3cnn4cccnc34)c(-c3cc(Cl)ccc3OC(F)F)n2)C1 [Example 71, N-[3-[5-chloro-2-(difluoromethoxy)phenyl]-1-[2-[(3R)-3-[(dimethylamino)methyl]-1-piperidyl]-2-oxo-ethyl]pyrazol-4-yl]pyrazolo[1,5-a]pyrimidine-3-carboxamide] | 1.06 | 4.66 |
| CN(C)CCOC1CCN(C(=O)Cn2cc(NC(=O)c3cnn4cccnc34)c(-c3cc(Cl)ccc3OC(F)F)n2)CC1 [Example 73, N-[3-[5-chloro-2-(difluoromethoxy)phenyl]-1-[2-[4-[2-(dimethylamino)ethoxy]-1-piperidyl]-2-oxo-ethyl]pyrazol-4-yl]pyrazolo[1,5-a]pyrimidine-3-carboxamide] | 0.71 | 1.71 |
| Nc1nn2cccnc2c1C(=O)Nc1cn(CC(=O)N2CCC(N3CC[C@@H](O)C3)CC2)nc1-c1cc(Cl)ccc1OC(F)F [Example 76, 2-amino-N-[3-[5-chloro-2-(difluoromethoxy)phenyl]-1-[2-[4-[(3R)-3-hydroxypyrrolidin-1-yl]-1-piperidyl]-2-oxo-ethyl]pyrazol-4-yl]pyrazolo[1,5-a]pyrimidine-3-carboxamide] | 0.5 | 0.52 |
| CN(C1CCN(C(=O)Cn2cc(NC(=O)c3cnn4cccnc34)c(-c3cc(Cl)ccc3OC(F)F)n2)CC1)C(Cc1ccccc1)C(F)(F)F (centres unmarked) [Example 133, N-[1-[2-[4-[(1-benzyl-2,2,2-trifluoro-ethyl)-methyl-amino]-1-piperidyl]-2-oxo-ethyl]-3-[5-chloro-2-(difluoromethoxy)phenyl]pyrazol-4-yl]pyrazolo[1,5-a]pyrimidine-3-carboxamide] | 6.51 | 8.33 |
| CN(C)CCOC1CCN(C(=O)Cn2cc(NC(=O)c3c(N)nn4cccnc34)c(-c3cc(Cl)ccc3OC(F)F)n2)CC1 [Example 137, 2-amino-N-[3-[5-chloro-2-(difluoromethoxy)phenyl]-1-[2-[4-[2-(dimethylamino)ethoxy]-1-piperidyl]-2-oxo-ethyl]pyrazol-4-yl]pyrazolo[1,5-a]pyrimidine-3-carboxamide] | 0.53 | 0.72 |
| CN(C)C1CN(C(=O)Cn2cc(NC(=O)c3c(N)nn4cccnc34)c(-c3cc(Cl)ccc3OC(F)F)n2)C1 [Example 138, 2-amino-N-[3-[5-chloro-2-(difluoromethoxy)phenyl]-1-[2-[3-(dimethylamino)azetidin-1-yl]-2-oxo-ethyl]pyrazol-4-yl]pyrazolo[1,5-a]pyrimidine-3-carboxamide] | 0.52 | – |
| Nc1nn2cccnc2c1C(=O)Nc1cn([C@@H]2CCNC2)nc1-c1cc(Cl)ccc1OC(F)F [Example 185, 2-amino-N-[3-[5-chloro-2-(difluoromethoxy)phenyl]-1-[(3R)-pyrrolidin-3-yl]pyrazol-4-yl]pyrazolo[1,5-a]pyrimidine-3-carboxamide] | 0.59 | 0.31 |
| CN(CC1(C#N)CCCCC1)C1CCN(C(=O)c2ccc(-n3cc(NC(=O)c4cnn5cccnc45)c(-c4cc(Cl)ccc4OC(F)F)n3)cc2)CC1 [Example 187, N-[3-[5-chloro-2-(difluoromethoxy)phenyl]-1-[4-[4-[(1-cyanocyclohexyl)methyl-methyl-amino]piperidine-1-carbonyl]phenyl]pyrazol-4-yl]pyrazolo[1,5-a]pyrimidine-3-carboxamide] | 7.05 | 9.03 |
| CN(CC1(C#N)CCCCC1)C1CCN(c2nc(-c3cc(Cl)ccc3OC(F)F)c(NC(=O)c3cnn4cccnc34)s2)CC1 [Example 203, N-[4-[5-chloro-2-(difluoromethoxy)phenyl] 2-[4-[(1-cyanocyclohexyl)methyl-methyl-amino]-1-piperidyl]thiazol-5-yl]pyrazolo[1,5-a]pyrimidine-3-carboxamide] | 5.48 | 4.15 |
| O=C(Nc1sc(N2CCN(CCc3ccccc3)CC2)nc1-c1cc(Cl)ccc1OC(F)F)c1cnn2cccnc12 [Example 206, N-[4-[5-chloro-2-(difluoromethoxy)phenyl]-2-[4-(2-phenylethyl)piperazin-1-yl]thiazol-5-yl]pyrazolo[1,5-a]pyrimidine-3-carboxamide] | 14 | 8.67 |
| CN1CCC2(CC1)CN(C(=O)Cn1cc(NC(=O)c3cnn4cccnc34)c(-c3cc(Cl)ccc3OC(F)F)n1)CCO2 [Example 213, N-[3-[5-chloro-2-(difluoromethoxy)phenyl]-1-[2-(9-methyl-1-oxa-4,9-diazaspiro[5.5]undecan-4-yl)-2-oxo-ethyl]pyrazol-4-yl]pyrazolo[1,5-a]pyrimidine-3-carboxamide] | 1.49 | 2.34 |

The next lines start with the values.

| Ki [1] [nM] | Ki [2] [nM] | SMILES |
| --- | --- | --- |
| 1.17 | 1.29 | CN1CC2(C1)CN(C(=O)Cn1cc(NC(=O)c3cnn4cccnc34)c(-c3cc(Cl)ccc3OC(F)F)n1)C2 [Example 214, N-[3-[5-chloro-2-(difluoromethoxy)phenyl]-1-[2-(6-methyl-2,6-diazaspiro[3.3]heptan-2-yl)-2-oxo-ethyl]pyrazol-4-yl]pyrazolo[1,5-a]pyrimidine-3-carboxamide] |
| 1.33 | – | CN1CCC2(CC1)CN(C(=O)Cn1cc(NC(=O)c3c(N)nn4cccnc34)c(-c3cc(Cl)ccc3OC(F)F)n1)CCO2 [Example 215, 2-amino-N-[3-[5-chloro-2-(difluoromethoxy)phenyl]-1-[2-(9-methyl-1-oxa-4,9-diazaspiro[5.5]undecan-4-yl)-2-oxo-ethyl]pyrazol-4-yl]pyrazolo[1,5-a]pyrimidine-3-carboxamide] |
| 1.07 | 1.37 | O=C(Nc1cn(CC(=O)N2CC3(CCNCC3)C2)nc1-c1cc(Cl)ccc1OC(F)F)c1cnn2cccnc12 [Example 217, N-[3-[5-chloro-2-(difluoromethoxy)phenyl]-1-[2-(2,7-diazaspiro[3.5]nonan-2-yl)-2-oxo-ethyl]pyrazol-4-yl]pyrazolo[1,5-a]pyrimidine-3-carboxamide] |
| 0.61 | 0.71 | O=C(Nc1cn(CC(=O)N2CCN(CCCO)CC2)nc1-c1cc(Cl)ccc1OC(F)F)c1cnn2cccnc12 [Example 230, N-[3-[5-chloro-2-(difluoromethoxy)phenyl]-1-[2-[4-(3-hydroxypropyl)piperazin-1-yl]-2-oxo-ethyl]pyrazol-4-yl]pyrazolo[1,5-a]pyrimidine-3-carboxamide] |
| 0.54 | 1.18 | O=C(Nc1cn(CC(=O)N2CCN(CCOCCO)CC2)nc1-c1cc(Cl)ccc1OC(F)F)c1cnn2cccnc12 [Example 231, N-[3-[5-chloro-2-(difluoromethoxy)phenyl]-1-[2-[4-[2-(2-hydroxyethoxy)ethyl]piperazin-1-yl]-2-oxo-ethyl]pyrazol-4-yl]pyrazolo[1,5-a]pyrimidine-3-carboxamide] |
| 0.74 | 1.46 | CS(=O)(=O)CCN1CCN(C(=O)Cn2cc(NC(=O)c3cnn4cccnc34)c(-c3cc(Cl)ccc3OC(F)F)n2)CC1 [Example 232, N-[3-[5-chloro-2-(difluoromethoxy)phenyl]-1-[2-[4-(2-methylsulfonylethyl)piperazin-1-yl]-2-oxo-ethyl]pyrazol-4-yl]pyrazolo[1,5-a]pyrimidine-3-carboxamide] |
| 0.58 | 1.22 | CN1CCN(C(=O)Cn2cc(NC(=O)c3cnn4cccnc34)c(-c3cc(Cl)ccc3OC(F)F)n2)C[C@@H]1CO [Example 234, N-[3-[5-chloro-2-(difluoromethoxy)phenyl]-1-[2-[(3R)-3-(hydroxymethyl)-4-methyl-piperazin-1-yl]-2-oxo-ethyl]pyrazol-4-yl]pyrazolo[1,5-a]pyrimidine-3-carboxamide] |
| 0.83 | – | C[C@@H]1CN(C(=O)Cn2cc(NC(=O)c3c(N)nn4cccnc34)c(-c3cc(Cl)ccc3OC(F)F)n2)C[C@H](C)N1 [Example 251, 2-amino-N-[3-[5-chloro-2-(difluoromethoxy)phenyl]-1-[2-[(3R,5S)-3,5-dimethylpiperazin-1-yl]-2-oxo-ethyl]pyrazol-4-yl]pyrazolo[1,5-a]pyrimidine-3-carboxamide] |
| – | 0.2 | Nc1nn2cccnc2c1C(=O)Nc1cn(CC(=O)N2CC[C@H](O)C2)nc1-c1cc(Cl)ccc1OC(F)F [Example 270, 2-amino-N-[3-[5-chloro-2-(difluoromethoxy)phenyl]-1-[2-[(3S)-3-hydroxypyrrolidin-1-yl]-2-oxo-ethyl]pyrazol-4-yl]pyrazolo[1,5-a]pyrimidine-3-carboxamide] |
